Entries after “also recorded” stand apart in the source; their conditions may differ.

The values below come from PMC12472494, “Anticonvulsant Potential of 1-Aryl-6,7-dimethoxy-1,2,3,4-tetrahydroisoquinolines: Insights from Strychnine and Nicotine Models in In Vivo and In Silico Studies” (Pharmaceuticals, 2025).

For data set [1], the system named is strychnine-induced seizures. Description: Strychnine-induced seizure model. Type of data set: in vivo, mice. To be noted: for responders at 1 mg/kg: Mus musculus, read-out: Survival Rate; for responders at 1 mg/kg / Duration of Tremor and Seizures / Latency to Tremor and Seizure Onset: oral dose 1.0 mg/kg 60 min before strychnine 1.5 mg/kg s.c., N = 10; for Duration of Tremor and Seizures / Latency to Tremor and Seizure Onset: mean ± SD; for survival rate of strychnine-poisoned animals: dose not given; for activity against strychnine-induced seizures (in words): ranking within the series. The source says: (§1) The anticonvulsant effects of the examined substances were studied in male white mice weighing 18–22 g, divided into the following groups: control (including the strychnine and nicotine groups), carbamazepine group, Convulex group, and experimental groups (one for each tested substance). Simple randomization (“heads or tails” coin toss) was used to assign animals to groups. Each group contained 10 animals. Healthy animals were included in the experiments after a 14-day quarantine period. No animals were excluded from the study. Convulsant agents were administered subcutaneously at doses of 10.0 mg/kg for nicotine (Sigma–Aldrich, Saint Louis, MO, USA) and 1.5 mg/kg for strychnine (Sigma–Aldrich, Saint Louis, MO, USA), 60 min after the oral administration of the test substances at doses ranging from 0.1 to 10 mg/kg. The onset time, duration of tremors and seizures, and survival rate of the animals were recorded. Carbamazepine (Darnitsa, Kiev, Ukraine) at doses of 5.0–10.0 mg/kg and Convulex (valproate) (Gerot Pharmazeutika GmbH, Vienna, Austria) at doses of 75.0–100.0 mg/kg (based on the therapeutic anticonvulsant dose) were used as reference drugs.
(§2) Data were presented as mean ± SD for different groups. Statistical analysis was performed using OriginPro 9.0 (MicroCal Software, Northampton, MA, USA), with p < 0.05 considered statistically significant.

Data set [2] relates to tremorogenic and convulsive actions of nicotine. As to the kind of experiment: Nicotine-induced tremor and seizure model. To be noted: for responders at 1 mg/kg: Mus musculus, po, read-out: Survival Rate; for survival rate of the animals increased to: at low doses (0.1–5 mg/kg); for activity against tremorogenic and convulsive actions of nicotine versus reference drugs (in words): doses of 0.1–5 mg/kg; for Duration of Seizures / Latency to Seizure Onset: oral dose 1.0 mg/kg 60 min before nicotine 10 mg/kg s.c., mean ± SD, N = 10. In kind it is in vivo, mice.
Source text: as §1, §2

On the set-up of data set [3]: method as in PMID 36677539. The settings on record: per os; cited from earlier work.
Where [4] appears, read: doses of 0.5–1 mg/kg, versus control.

In the case of `COc1cc2c(cc1OC)C(c1cccc(Br)c1)NCC2` (centres unmarked) [Compound 14, 1-(3′-Bromophenyl)-6,7-dimethoxy-1,2,3,4-tetrahydroisoquinoline], in data set [1], the responders at 1 mg/kg is 60%; the “Duration of Tremor and Seizures” value amounted to 0.35 ± 0.8 min; the “Latency to Tremor and Seizure Onset” value is given as 18.5 ± 1.5 min. In addition, in data set [2], the responders at 1 mg/kg was determined as 90%; the “survival rate of the animals increased to” value is given as 90–100%; the “activity against tremorogenic and convulsive actions of nicotine versus reference drugs (in words)” value is listed as “comparable activity to the reference drugs”; the “Duration of Seizures” value was determined as 2.5 ± 0.4 min. For the same compound, the “Latency to Seizure Onset” value in data set [2] was 2.8 ± 0.02 min. Moreover, in data set [3], the LD50 is 446.7 (416.2 ± 471.3) mg/kg.

As to `COc1cc2c(cc1OC)C(c1cc(Br)ccc1O)NCC2` (centres unmarked) [Compound 17, 1-(2′-Hydroxy-5′-bromophenyl)-6,7-dimethoxy-1,2,3,4-tetrahydroisoquinoline], in data set [1], the responders at 1 mg/kg came to 40%; the “Duration of Tremor and Seizures” value came to 0.61 ± 0.5 min; the “Latency to Tremor and Seizure Onset” value turned out to be 15.7 ± 1.6 min. Moreover, in data set [2], the responders at 1 mg/kg amounted to 70%, the “Duration of Seizures” value is 8.1 ± 0.8 min and the “Latency to Seizure Onset” value is reported as 2.1 ± 0.07 min. For the same compound, the LD50 in data set [3] is 297.3 (270.2 ± 323.7) mg/kg.

Consider `COc1cc2c(cc1OC)C(c1ccc(O)cc1)NCC2` (centres unmarked) [Compound 4, 1-(4′-Hydroxyphenyl)-6,7-dimethoxy-1,2,3,4-tetrahydroisoquinoline], for which, in data set [1], the responders at 1 mg/kg was 70%; the “Duration of Tremor and Seizures” value worked out at 0.57 ± 0.7 min; the “Latency to Tremor and Seizure Onset” value turned out to be 14.2 ± 1.8 min. For the same compound, in data set [2], the responders at 1 mg/kg stood at 60%, the “Duration of Seizures” value worked out at 10.5 ± 0.8 min and the “Latency to Seizure Onset” value is reported as 1.8 ± 0.05 min. In data set [3], the LD50 is reported as 924.2 (893.9 ± 953.9) mg/kg.

Take `COc1cc2c(cc1OC)C(c1cccc(Cl)c1)NCC2` (centres unmarked) [Compound 11, 1-(3′-Chlorophenyl)-6,7-dimethoxy-1,2,3,4-tetrahydroisoquinoline]: in data set [1], the responders at 1 mg/kg turned out to be 70%; the “Duration of Tremor and Seizures” value was 0.46 ± 0.5 min; the “Latency to Tremor and Seizure Onset” value is 15.5 ± 1.2 min. In data set [2], the responders at 1 mg/kg stood at 70%, the “Duration of Seizures” value stood at 8.3 ± 0.3 min and the “Latency to Seizure Onset” value is 2.2 ± 0.07 min. Besides, the LD50 in data set [3] is given as 232.4 (211.8 ± 251.1) mg/kg.

For `COc1cc(C2NCCc3cc(OC)c(OC)cc32)ccc1O` (centres unmarked) [Compound 21, 1-(4′-Hydroxy-3′-methoxyphenyl)-6,7-dimethoxy-1,2,3,4-tetrahydroisoquinoline], in data set [1], the responders at 1 mg/kg was determined as 40%; the “Duration of Tremor and Seizures” value is 0.52 ± 0.4 min; the “Latency to Tremor and Seizure Onset” value came to 15.4 ± 1.5 min. Besides, in data set [2], the responders at 1 mg/kg turned out to be 60%, the “Duration of Seizures” value came out at 14.3 ± 0.6 min and the “Latency to Seizure Onset” value is 1.8 ± 0.04 min. Also, in data set [3], the LD50 is 1663.6 (1623.1 ± 1629.1) mg/kg.

With `COc1cc2c(cc1OC)C(c1ccc([N+](=O)[O-])cc1)NCC2` (centres unmarked) [Compound 9, 1-(4′-Nitrophenyl)-6,7-dimethoxy-1,2,3,4-tetrahydroisoquinoline], in data set [1], the responders at 1 mg/kg worked out at 40%; the “Duration of Tremor and Seizures” value turned out to be 0.51 ± 0.5 min; the “Latency to Tremor and Seizure Onset” value worked out at 13.5 ± 1.9 min. In addition, in data set [2], the responders at 1 mg/kg was 90%, the “Duration of Seizures” value amounted to 16.7 ± 0.4 min and the “Latency to Seizure Onset” value is on record as 2.5 ± 0.03 min. Besides, in data set [3], the LD50 is reported as 1898.8 (703.5 ± 2273.4) mg/kg.

As for `COc1cc2c(cc1OC)C(c1ccccc1Cl)NCC2` (centres unmarked) [Compound 10, 1-(2′-Chlorophenyl)-6,7-dimethoxy-1,2,3,4-tetrahydroisoquinoline], in data set [1], the responders at 1 mg/kg is 30%; the “Duration of Tremor and Seizures” value stood at 0.60 ± 0.4 min; the “Latency to Tremor and Seizure Onset” value amounted to 17.2 ± 1.7 min. Further, in data set [2], the responders at 1 mg/kg came out at 70%, the “Duration of Seizures” value was determined as 9.2 ± 0.9 min and the “Latency to Seizure Onset” value was 2.2 ± 0.03 min. The LD50 in data set [3] is reported as 264.2 (224.8 ± 293.9) mg/kg.

With `COc1cc2c(cc1OC)C(c1ccccc1O)NCC2` (centres unmarked) [Compound 3, 1-(2′-Hydroxyphenyl)-6,7-dimethoxy-1,2,3,4-tetrahydroisoquinoline], in data set [1], the responders at 1 mg/kg was found to be 60%; the “Duration of Tremor and Seizures” value is listed as 0.29 ± 0.6 min; the “Latency to Tremor and Seizure Onset” value came out at 14.5 ± 1.7 min. Further, in data set [2], the responders at 1 mg/kg came to 90%; the “survival rate of the animals increased to” value is 90–100%; the “activity against tremorogenic and convulsive actions of nicotine versus reference drugs (in words)” value is “comparable activity to the reference drugs”; the “Duration of Seizures” value is reported as 9.0 ± 0.4 min. The “Latency to Seizure Onset” value in data set [2] was 2.6 ± 0.08 min. Moreover, the LD50 in data set [3] is listed as 365.3 (326.1 ± 394.5) mg/kg.

In the case of `COc1cc(Br)c(C2NCCc3cc(OC)c(OC)cc32)cc1OC` (centres unmarked) [Compound 25, 1-(2′-Bromo-4′,5′-dimethoxyphenyl)-6,7-dimethoxy-1,2,3,4-tetrahydroisoquinoline], in data set [1], the responders at 1 mg/kg was determined as 90%; the “survival rate of strychnine-poisoned animals” value turned out to be 90%; the “Duration of Tremor and Seizures” value was 0.14 ± 0.6 min; the “Latency to Tremor and Seizure Onset” value was 16.5 ± 1.5 min. Moreover, the “activity against strychnine-induced seizures (in words)” value in data set [1] is “most active; also recorded: highest activity”. In addition, the “increase of animal survival” value in data set [1] (doses of 0.5–1 mg/kg) came to 90%. In data set [1] (setting [4]), the “extension of the latency period for seizures” value is 30–100% and the “reduction of seizure duration” value is given as 3.7–4 times. For the same compound, in data set [2], the responders at 1 mg/kg was 90%; the “survival rate of the animals increased to” value is on record as 90–100%; the “activity against tremorogenic and convulsive actions of nicotine versus reference drugs (in words)” value is on record as “comparable activity to the reference drugs”; the “Duration of Seizures” value turned out to be 9.0 ± 0.9 min. Also, the “Latency to Seizure Onset” value in data set [2] was found to be 2.2 ± 0.04 min. Besides, the LD50 in data set [3] is 272.1 (249.1 ± 295.6) mg/kg.

`COc1cc2c(cc1OC)C(c1cc3c(cc1Cl)OCO3)NCC2` (centres unmarked) [Compound 31, 1-(4′,5′-Methylenedioxy-2′-chlorophenyl)-6,7-dimethoxy-1,2,3,4-tetrahydroisoquinoline]: in data set [1], the responders at 1 mg/kg is 30%; the “Duration of Tremor and Seizures” value came to 0.59 ± 0.5 min; the “Latency to Tremor and Seizure Onset” value is recorded as 13.6 ± 1.9 min. In data set [2], the responders at 1 mg/kg is 90%; the “survival rate of the animals increased to” value is 90–100%; the “activity against tremorogenic and convulsive actions of nicotine versus reference drugs (in words)” value is given as “comparable activity to the reference drugs”; the “Duration of Seizures” value is 10.7 ± 0.9 min. The “Latency to Seizure Onset” value in data set [2] is recorded as 2.3 ± 0.08 min. Moreover, the LD50 in data set [3] was 520.8 (491.9 ± 545.4) mg/kg.

`COc1ccc(C2NCCc3cc(OC)c(OC)cc32)cc1O` (centres unmarked) [Compound 20, 1-(3′-Hydroxy-4′-methoxyphenyl)-6,7-dimethoxy-1,2,3,4-tetrahydroisoquinoline]: in data set [1], the responders at 1 mg/kg was 90%; the “survival rate of strychnine-poisoned animals” value is given as about 90%; the “Duration of Tremor and Seizures” value amounted to 0.63 ± 0.7 min; the “Latency to Tremor and Seizure Onset” value amounted to 18.2 ± 1.4 min. Further, the “activity against strychnine-induced seizures (in words)” value in data set [1] is listed as “most active; also recorded: highest activity”. In addition, in data set [1] (doses of 1–10 mg/kg), the “effect on the duration of the seizures” value is given as “minimal effect” and the “increase of animal survival” value is reported as 90%. Also, in data set [1] (doses of 1–10 mg/kg, versus control), the “extension of the latency period for seizures” value is listed as 27–86%. In data set [2], the responders at 1 mg/kg came to 70%, the “Duration of Seizures” value amounted to 11.0 ± 0.7 min and the “Latency to Seizure Onset” value was 2.8 ± 0.07 min. Further, the LD50 in data set [3] was 964.8 (916.5 ± 998.2) mg/kg.
